The source of these data is US11279733B2, “Peptide antibiotics” (priority 2017, dated 2022).

In brackets after ≈: the same amount, converted by molar mass. Where two headings read alike, the source gives them in different places. Positions of bridges follow the written chain, without caps; N, C: chain ends. Non-standard residues stand in square brackets, D forms with d. Residues, ends and D or L forms follow the SMILES beside them. *: point of attachment. Decanoyl(3R-OH) = CCCCCCC[C@@H](O)CC(=O)*; dDab = NCC[C@@H](N)C(=O)O; Dab = NCC[C@H](N)C(=O)O Bounds are passed on as bounds.

One data set can be described thus: in vitro. Particulars: human. The method in brief: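 HK2 cells were seeded at 2000 per well in DMEM/F12 with 10% FBS and left to attach for 24 h at 37 °C, 5% CO2. They were then exposed for 24 h to 3-fold peptide dilutions starting from 600 μM solutions in quadruplicate. LDH release was read at 450 nm, and CC50 was fitted from dose-response curves.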
Data set [1] has as its system K. pneumoniae GN_106, PmxR. Particulars: GN 106, PmxR. The method in brief: (§1)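 Mid-log cultures grown in Mueller Hinton broth at 37° C were tested by 2-fold broth microdilution at 5×10^5 CFU/mL final. Compounds were dissolved in water and tested over a final range of 32 to 0.015 μg/mL.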
For another data set, the system named is P. aeruginosa ATCC 27853. The conditions noted are these: ATCC 27853. The method in brief:
as §1

The test system of data set [2] is K. pneumoniae GN_102 PmxR. The conditions noted are these: GN 102 PmxR. An outline of the steps:
as §1

For data set [3], the system named is S. aureus ATCC 25923, MSSA. The conditions noted are these: ATCC 25923. An outline of the steps: as §1
A further data set has as its system A. baumannii ATCC 19606. Particulars: ATCC 19606. An outline of the steps: as §1
For another data set, the system named is E. coli ATCC 25922. The conditions noted are these: ATCC 25922. The method in brief:
as §1

For data set [4], the system named is P. aeruginosa GN_043, PmxR. The method in brief:
as §1

Data set [5] has as its system K. pneumoniae ATCC BAA-2146, NDM-1 pos. Particulars: ATCC BAA-2146. The method in brief: as §1
Data set [6] relates to K. pneumoniae ATCC 700603, MDR. Particulars: ATCC 700603. An outline of the steps:
as §1

Another data set deals with K. pneumoniae ATCC 13883. The conditions noted are these: ATCC 13883. The method in brief: as §1
The subject of another data set is A. baumannii GN_093 PmxR. The conditions noted are these: GN 093 PmxR. The method in brief: as §1
For data set [7], the system named is P. aeruginosa GN_105, PmxR. Particulars: GN 105, PmxR. An outline of the steps: as §1

For the molecule `CCCCCCC[C@@H](O)CC(=O)N[C@@H](C)C(=O)N[C@H]1CCNC(=O)[C@H](CC(C)C)NC(=O)[C@H](CCN)NC(=O)[C@H](CCN)NC(=O)[C@H](CC(C)C)NC(=O)[C@@H](Cc2ccccc2)NC(=O)[C@H](CCN)NC1=O` [compound 4950, 3(R)OH-nC9CO-L-Ala-cyc[L-Dab-L-Dab-D-Phe-L-Leu-L-Dab-L-Dab-L-Leu]] ({Decanoyl(3R-OH)}-A[Dab][Dab][dF]L[Dab][Dab]L; lactam 2-C), the CC50 at 24 h in “in vitro” was 286 µM. In [1], the “MIC K. pneumoniae GN_106, PmxR” value was found to be 32 µg/mL (≈ 31.5 µM). The “MIC, P. aeruginosa ATCC 27853” value in the data set on P. aeruginosa ATCC 27853 is 16 µg/mL (≈ 15.8 µM). In addition, in [2], the “MIC K. pneumoniae GN_102 PmxR” value turned out to be 8 µg/mL (≈ 7.88 µM). For the same molecule, the “MIC, S. aureus ATCC 25923, MSSA” value in data set [3] is greater than 32 µg/mL. Further, the “MIC, A. baumannii ATCC 19606” value with A. baumannii ATCC 19606 is greater than 32 µg/mL. In addition, the “MIC, E. coli ATCC 25922” value with E. coli ATCC 25922 is 32 µg/mL (≈ 31.5 µM). The “MIC P. aeruginosa GN_043, PmxR” value in data set [4] (Table 6, polymyxin-resistant) amounted to 16 µg/mL (≈ 15.8 µM). Further, the “MIC, K. pneumoniae ATCC BAA-2146, NDM-1 pos” value in [5] was found to be 16 µg/mL (≈ 15.8 µM). Besides, in [6], the “MIC, K. pneumoniae ATCC 700603, MDR” value turned out to be 16 µg/mL (≈ 15.8 µM). The “MIC, K. pneumoniae ATCC 13883” value with K. pneumoniae ATCC 13883 is 16 µg/mL (≈ 15.8 µM). Besides, the “MIC A. baumannii GN_093 PmxR” value with A. baumannii GN_093 PmxR was greater than 32 µg/mL. Also, in [7], the “MIC P. aeruginosa GN_105, PmxR” value is 32 µg/mL (≈ 31.5 µM).
For `CCCCCCC[C@@H](O)CC(=O)N[C@H](C)C(=O)N[C@H]1CCNC(=O)[C@H](CC(C)C)NC(=O)[C@H](CCN)NC(=O)[C@H](CCN)NC(=O)[C@H](CC(C)C)NC(=O)[C@@H](Cc2ccccc2)NC(=O)[C@H](CCN)NC1=O` [compound 4951, 3(R)OH-nC9CO-D-Ala-cyc[L-Dab-L-Dab-D-Phe-L-Leu-L-Dab-L-Dab-L-Leu]] ({Decanoyl(3R-OH)}-[dA][Dab][Dab][dF]L[Dab][Dab]L; lactam 2-C), in the data set “in vitro”, the CC50 at 24 h worked out at 120 µM. Besides, the “MIC K. pneumoniae GN_106, PmxR” value in data set [1] was found to be 8 µg/mL (≈ 7.88 µM). For the same molecule, in the data set with P. aeruginosa ATCC 27853, the “MIC, P. aeruginosa ATCC 27853” value amounted to 8 µg/mL (≈ 7.88 µM). In addition, in data set [2], the “MIC K. pneumoniae GN_102 PmxR” value is 4 µg/mL (≈ 3.94 µM). Moreover, in data set [3], the “MIC, S. aureus ATCC 25923, MSSA” value came to 32 µg/mL (≈ 31.5 µM). For the same molecule, in the data set on A. baumannii ATCC 19606, the “MIC, A. baumannii ATCC 19606” value stood at 32 µg/mL (≈ 31.5 µM). The “MIC, E. coli ATCC 25922” value in the data set with E. coli ATCC 25922 turned out to be 16 µg/mL (≈ 15.8 µM). Further, the “MIC P. aeruginosa GN_043, PmxR” value in data set [4] (Table 6, polymyxin-resistant) came to 8 µg/mL (≈ 7.88 µM). In data set [5], the “MIC, K. pneumoniae ATCC BAA-2146, NDM-1 pos” value came out at 8 µg/mL (≈ 7.88 µM). The “MIC, K. pneumoniae ATCC 700603, MDR” value in [6] worked out at 8 µg/mL (≈ 7.88 µM). The “MIC, K. pneumoniae ATCC 13883” value with K. pneumoniae ATCC 13883 is 16 µg/mL (≈ 15.8 µM). For the same molecule, the “MIC A. baumannii GN_093 PmxR” value against A. baumannii GN_093 PmxR turned out to be 32 µg/mL (≈ 31.5 µM). Besides, the “MIC P. aeruginosa GN_105, PmxR” value in data set [7] was found to be 16 µg/mL (≈ 15.8 µM).
In “in vitro”, `CCCCCCC[C@@H](O)CC(=O)N[C@H](CCN)C(=O)N[C@H]1CCNC(=O)[C@H](CC(C)C)NC(=O)[C@H](CCN)NC(=O)[C@H](CCN)NC(=O)[C@H](CC(C)C)NC(=O)[C@@H](C)NC(=O)[C@H](CCN)NC1=O` [compound 5006, 3(R)OH-nC9CO-D-Dab-cyc[L-Dab-L-Dab-D-Ala-L-Leu-L-Dab-L-Dab-L-Leu]] ({Decanoyl(3R-OH)}-[dDab][Dab][Dab][dA]L[Dab][Dab]L; lactam 2-C) registered a CC50 at 24 h of 277 µM. Also, the “MIC K. pneumoniae GN_106, PmxR” value in [1] came out at 32 µg/mL (≈ 33 µM). Moreover, the “MIC P. aeruginosa ATCC 27853” value in the data set with P. aeruginosa ATCC 27853 was 16 µg/mL (≈ 16.5 µM). For the same molecule, the “MIC K. pneumoniae GN_102 PmxR” value in data set [2] stood at 8 µg/mL (≈ 8.26 µM). The “MIC S. aureus ATCC 25923, MSSA” value in data set [3] is greater than 32 µg/mL. The “MIC A. baumannii ATCC 19606” value against A. baumannii ATCC 19606 is greater than 32 µg/mL. In addition, the “MIC E. coli ATCC 25922” value in the data set on E. coli ATCC 25922 was found to be 16 µg/mL (≈ 16.5 µM). In addition, in data set [4] (P. aeruginosa GN_043, PmxR), the “MIC P. aeruginosa GN_043, PmxR” value amounted to 8 µg/mL (≈ 8.26 µM). Also, the “MIC K. pneumoniae ATCC BAA-2146, NDM-1 pos” value in data set [5] was 32 µg/mL (≈ 33 µM). For the same molecule, in data set [6], the “MIC K. pneumoniae ATCC 700603, MDR” value was greater than 32 µg/mL. For the same molecule, the “MIC K. pneumoniae ATCC 13883” value in the data set with K. pneumoniae ATCC 13883 is 32 µg/mL (≈ 33 µM). Also, the “MIC A. baumannii GN_093 PmxR” value in the data set on A. baumannii GN_093 PmxR was greater than 32 µg/mL. In addition, in [7], the “MIC P. aeruginosa GN_105, PmxR” value came to 32 µg/mL (≈ 33 µM).
